The source of these data is patent publication US11872262B2, “Means and methods for treating bacterial infections” (VIB VZW, priority 2017, dated 2024).

Residues, ends and D or L forms follow the SMILES beside them.

In the assay the test system is E. coli O157:H7. It counts as cell-based, Escherichia coli. The following applies: screening-stage peptides tested at 1, 6, 12 and 25 μg/mL. The method in brief:
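Tandem-repeat aggregation-prone-region peptides from DMSO stocks were tested for growth inhibition of E. coli O157:H7 at 1, 6, 12 and 25 μg/mL.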
On to `CC(C)C[C@H](NC(=O)CNC(=O)[C@H](CCCNC(=N)N)NC(=O)[C@@H]1CCCN1C(=O)[C@H](CCCNC(=N)N)NC(=O)[C@H](CCCNC(=N)N)NC(=O)[C@H](C)NC(=O)[C@H](CCCNC(=N)N)NC(=O)[C@H](CC(C)C)NC(=O)[C@H](C)NC(=O)[C@H](CC(C)C)NC(=O)[C@H](CC(C)C)NC(=O)CNC(=O)[C@@H](N)CCCNC(=N)N)C(=O)N[C@@H](CC(C)C)C(=O)N[C@@H](C)C(=O)N[C@@H](CC(C)C)C(=O)N[C@@H](CC(C)C)C(=O)N[C@@H](C)C(=O)N[C@@H](CCCNC(=N)N)C(=O)N[C@@H](CCCNC(=N)N)C(=O)O` [Peptide P114] (H-RGLLALRARRPRGLLALLARR-OH; N-terminus and C-terminus assumed), for which the “E. coli O157 (apparent MIC in screen)” value was 25 µg/mL. Next, `CC[C@H](C)[C@H](NC(=O)CNC(=O)[C@@H](NC(=O)[C@H](CC(C)C)NC(=O)[C@H](CCCNC(=N)N)NC(=O)[C@@H]1CCCN1C(=O)[C@H](CCCNC(=N)N)NC(=O)[C@H](CCCNC(=N)N)NC(=O)CNC(=O)[C@H](CC(C)C)NC(=O)[C@H](C)NC(=O)[C@@H](NC(=O)[C@H](CCCNC(=N)N)NC(=O)[C@@H](NC(=O)[C@H](CC(C)C)NC(=O)[C@@H](N)CCCNC(=N)N)[C@@H](C)CC)[C@@H](C)CC)[C@@H](C)CC)C(=O)N[C@@H](C)C(=O)N[C@@H](CC(C)C)C(=O)NCC(=O)N[C@@H](CCCNC(=N)N)C(=O)N[C@@H](CCCNC(=N)N)C(=O)O` [Peptide P115] (H-RLIRIALGRRPRLIGIALGRR-OH; N-terminus and C-terminus assumed): 25 µg/mL; `CC(C)C[C@H](NC(=O)[C@H](C)NC(=O)[C@H](CCCNC(=N)N)NC(=O)[C@@H]1CCCN1C(=O)[C@H](CCCNC(=N)N)NC(=O)[C@H](CCCNC(=N)N)NC(=O)[C@H](CCCNC(=N)N)NC(=O)[C@@H](NC(=O)[C@H](C)NC(=O)[C@@H](NC(=O)[C@H](CC(C)C)NC(=O)[C@H](CC(C)C)NC(=O)[C@H](C)NC(=O)[C@@H](N)CCCNC(=N)N)[C@@H](C)O)C(C)C)C(=O)N[C@@H](CC(C)C)C(=O)N[C@H](C(=O)N[C@@H](C)C(=O)N[C@H](C(=O)N[C@@H](CC(C)C)C(=O)N[C@@H](CCCNC(=N)N)C(=O)N[C@@H](CCCNC(=N)N)C(=O)O)C(C)C)[C@@H](C)O` [Peptide P116] (H-RALLTAVRRRPRALLTAVLRR-OH; N-terminus and C-terminus assumed): 6 µg/mL; `CC(C)C[C@H](NC(=O)[C@H](C)NC(=O)[C@@H](NC(=O)[C@H](CC(C)C)NC(=O)[C@H](CCC(N)=O)NC(=O)[C@H](CCCNC(=N)N)NC(=O)[C@@H]1CCCN1C(=O)[C@H](CCCNC(=N)N)NC(=O)[C@H](CCCNC(=N)N)NC(=O)[C@@H](NC(=O)[C@H](CCCNC(=N)N)NC(=O)[C@H](CC(C)C)NC(=O)[C@H](C)NC(=O)[C@@H](NC(=O)[C@H](CC(C)C)NC(=O)[C@H](CCC(N)=O)NC(=O)[C@@H](N)CCCNC(=N)N)C(C)C)C(C)C)C(C)C)C(=O)N[C@@H](CC(C)C)C(=O)N[C@H](C(=O)N[C@@H](CCCNC(=N)N)C(=O)N[C@@H](CCCNC(=N)N)C(=O)O)C(C)C` [Peptide P117] (H-RQLVALRVRRPRQLVALLVRR-OH; N-terminus and C-terminus assumed): 25 µg/mL. As to `CC(C)C[C@H](NC(=O)[C@H](C)NC(=O)[C@H](CC(C)C)NC(=O)[C@@H](NC(=O)[C@H](C)NC(=O)[C@H](CO)NC(=O)[C@H](CCCNC(=N)N)NC(=O)[C@@H]1CCCN1C(=O)[C@H](CCCNC(=N)N)NC(=O)[C@H](CCCNC(=N)N)NC(=O)[C@H](CC(C)C)NC(=O)[C@H](CC(C)C)NC(=O)[C@H](C)NC(=O)[C@H](CCCNC(=N)N)NC(=O)[C@@H](NC(=O)[C@H](C)NC(=O)[C@H](CO)NC(=O)[C@@H](N)CCCNC(=N)N)C(C)C)C(C)C)C(=O)N[C@@H](CC(C)C)C(=O)N[C@@H](CCCNC(=N)N)C(=O)N[C@@H](CCCNC(=N)N)C(=O)O` [Peptide P118] (H-RSAVRALLRRPRSAVLALLRR-OH; N-terminus and C-terminus assumed), the “E. coli O157 (apparent MIC in screen)” value worked out at 25 µg/mL. Regarding `CC[C@H](C)[C@H](NC(=O)[C@H](CC(C)C)NC(=O)[C@H](CC(C)C)NC(=O)[C@H](C)NC(=O)[C@H](CCCNC(=N)N)NC(=O)[C@@H]1CCCN1C(=O)[C@H](CCCNC(=N)N)NC(=O)[C@H](CCCNC(=N)N)NC(=O)[C@H](CC(C)C)NC(=O)[C@H](CC(C)C)NC(=O)[C@@H](NC(=O)[C@@H](NC(=O)[C@H](CCCNC(=N)N)NC(=O)[C@H](CC(C)C)NC(=O)[C@H](C)NC(=O)[C@@H](N)CCCNC(=N)N)[C@@H](C)CC)[C@@H](C)O)C(=O)N[C@H](C(=O)N[C@@H](CC(C)C)C(=O)N[C@@H](CC(C)C)C(=O)N[C@@H](CCCNC(=N)N)C(=O)N[C@@H](CCCNC(=N)N)C(=O)O)[C@@H](C)O` [Peptide P123] (H-RALRITLLRRPRALLITLLRR-OH; N-terminus and C-terminus assumed), the “E. coli O157 (apparent MIC in screen)” value turned out to be 25 µg/mL. For `CC(C)C[C@H](NC(=O)CNC(=O)[C@H](CCCNC(=N)N)NC(=O)[C@@H]1CCCN1C(=O)[C@H](CCCNC(=N)N)NC(=O)[C@H](CCCNC(=N)N)NC(=O)[C@H](CCC(N)=O)NC(=O)[C@H](CC(C)C)NC(=O)[C@H](C)NC(=O)[C@H](CCCNC(=N)N)NC(=O)[C@H](CC(C)C)NC(=O)[C@H](CC(C)C)NC(=O)CNC(=O)[C@@H](N)CCCNC(=N)N)C(=O)N[C@@H](CC(C)C)C(=O)N[C@@H](CC(C)C)C(=O)N[C@@H](C)C(=O)N[C@@H](CC(C)C)C(=O)N[C@@H](CCC(N)=O)C(=O)N[C@@H](CCCNC(=N)N)C(=O)N[C@@H](CCCNC(=N)N)C(=O)O` [Peptide P124] (H-RGLLRALQRRPRGLLLALQRR-OH; N-terminus and C-terminus assumed), the “E. coli O157 (apparent MIC in screen)” value stood at 12 µg/mL. As to `CC[C@H](C)[C@H](NC(=O)[C@H](CCCNC(=N)N)NC(=O)[C@@H]1CCCN1C(=O)[C@H](CCCNC(=N)N)NC(=O)[C@H](CCCNC(=N)N)NC(=O)[C@H](CC(N)=O)NC(=O)[C@H](CC(C)C)NC(=O)[C@@H](NC(=O)[C@H](CCCNC(=N)N)NC(=O)[C@@H](NC(=O)[C@@H](NC(=O)[C@@H](NC(=O)[C@@H](N)CCCNC(=N)N)[C@@H](C)CC)C(C)C)[C@@H](C)O)[C@@H](C)O)C(=O)N[C@H](C(=O)N[C@H](C(=O)N[C@H](C(=O)N[C@H](C(=O)N[C@@H](CC(C)C)C(=O)N[C@@H](CC(N)=O)C(=O)N[C@@H](CCCNC(=N)N)C(=O)N[C@@H](CCCNC(=N)N)C(=O)O)[C@@H](C)O)C(C)C)[C@@H](C)O)C(C)C` [Peptide P125] (H-RIVTRTLNRRPRIVTVTLNRR-OH; N-terminus and C-terminus assumed), the “E. coli O157 (apparent MIC in screen)” value was found to be 25 µg/mL.
